Assay results reported in ChEMBL document CHEMBL1909046, “DrugMatrix in vitro pharmacology data”.

Tests used:
[1] = biological target: T1, C-X-C chemokine receptor type 1 (Homo sapiens, UniProt P25024); further: in other assays of this panel Not Active means under 50% inhibition at 10 µM
T1 sequence (P25024 whole entry): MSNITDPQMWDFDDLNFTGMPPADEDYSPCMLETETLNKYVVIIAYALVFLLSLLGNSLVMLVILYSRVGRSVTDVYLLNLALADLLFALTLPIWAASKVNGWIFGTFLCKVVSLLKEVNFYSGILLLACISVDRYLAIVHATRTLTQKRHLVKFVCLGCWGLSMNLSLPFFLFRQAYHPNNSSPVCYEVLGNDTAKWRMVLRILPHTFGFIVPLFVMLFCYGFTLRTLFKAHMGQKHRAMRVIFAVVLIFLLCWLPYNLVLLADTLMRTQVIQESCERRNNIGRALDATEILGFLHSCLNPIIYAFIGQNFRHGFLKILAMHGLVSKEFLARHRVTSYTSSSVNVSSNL

[2] = DRUGMATRIX: Calcium Channel Type L, Benzothiazepine radioligand binding (ligand: [3H] Diltiazem); format: cell membranes, Rattus norvegicus, Wistar, Brain, Membrane; details: Not Active = under 50% inhibition at 10 µM
[3] = biological target: T2, Cholecystokinin receptor type A (Homo sapiens, UniProt P32238); format: cell membranes, Membrane; details: 1321-n1; further: in other assays of this panel Not Active means under 50% inhibition at 10 µM
T2 sequence (P32238 whole entry): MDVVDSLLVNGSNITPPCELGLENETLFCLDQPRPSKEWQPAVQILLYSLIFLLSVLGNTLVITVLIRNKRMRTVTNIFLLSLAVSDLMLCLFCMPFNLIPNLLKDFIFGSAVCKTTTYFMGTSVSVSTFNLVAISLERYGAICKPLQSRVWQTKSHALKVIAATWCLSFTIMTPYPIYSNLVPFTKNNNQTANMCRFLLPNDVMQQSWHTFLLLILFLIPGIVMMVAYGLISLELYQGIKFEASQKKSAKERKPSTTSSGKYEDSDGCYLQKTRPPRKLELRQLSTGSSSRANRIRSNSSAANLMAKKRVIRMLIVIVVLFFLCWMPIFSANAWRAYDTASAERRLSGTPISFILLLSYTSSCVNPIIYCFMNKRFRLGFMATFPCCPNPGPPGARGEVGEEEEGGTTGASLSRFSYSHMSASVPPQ

[4] = biological target: T3, C-C chemokine receptor type 4 (Homo sapiens, UniProt P51679); format: cell membranes, Membrane; details: chem-1; further: in other assays of this panel Not Active means under 50% inhibition at 10 µM
T3 sequence (P51679 whole entry): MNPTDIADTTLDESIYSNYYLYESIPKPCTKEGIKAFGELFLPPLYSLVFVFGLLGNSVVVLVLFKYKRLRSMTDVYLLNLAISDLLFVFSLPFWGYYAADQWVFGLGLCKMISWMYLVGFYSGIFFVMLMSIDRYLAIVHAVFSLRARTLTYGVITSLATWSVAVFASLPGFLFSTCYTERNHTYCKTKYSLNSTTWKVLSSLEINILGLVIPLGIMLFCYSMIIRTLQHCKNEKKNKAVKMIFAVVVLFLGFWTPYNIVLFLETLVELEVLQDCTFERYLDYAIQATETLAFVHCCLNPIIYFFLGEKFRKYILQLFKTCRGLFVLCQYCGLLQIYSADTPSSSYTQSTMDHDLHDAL

[5] = biological target: T4, Alpha-1A adrenergic receptor (Rattus norvegicus, UniProt P43140); assay: DRUGMATRIX: Alpha-1A adrenergic receptor radioligand binding (ligand: prazosin); format: cell membranes, Wistar, Submaxillary gland, Membrane; details: Not Active = under 50% inhibition at 10 µM
T4 sequence (P43140 whole entry): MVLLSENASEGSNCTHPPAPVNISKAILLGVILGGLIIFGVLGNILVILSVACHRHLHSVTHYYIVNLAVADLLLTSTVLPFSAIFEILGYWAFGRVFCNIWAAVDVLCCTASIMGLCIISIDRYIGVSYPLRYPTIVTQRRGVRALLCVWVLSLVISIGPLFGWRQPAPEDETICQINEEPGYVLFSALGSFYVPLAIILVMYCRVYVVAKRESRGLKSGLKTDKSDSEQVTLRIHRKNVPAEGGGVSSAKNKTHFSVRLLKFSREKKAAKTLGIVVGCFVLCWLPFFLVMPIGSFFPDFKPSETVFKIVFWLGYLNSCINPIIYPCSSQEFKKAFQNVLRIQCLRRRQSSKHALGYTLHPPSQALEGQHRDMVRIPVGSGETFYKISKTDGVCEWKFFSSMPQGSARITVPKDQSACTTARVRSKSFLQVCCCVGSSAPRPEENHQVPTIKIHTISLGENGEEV

[6] = biological target: C-C chemokine receptor type 5 (Homo sapiens, UniProt P51681); format: cell membranes, Membrane; details: hek293; further: in other assays of this panel Not Active means under 50% inhibition at 10 µM
[7] = biological target: 5-hydroxytryptamine receptor 1B (Rattus norvegicus, UniProt P28564); format: cell membranes, Wistar, Cerebral cortex, Membrane; further: in other assays of this panel Not Active means under 50% inhibition at 10 µM
5-hydroxytryptamine receptor 1B, sequence (P28564 whole entry): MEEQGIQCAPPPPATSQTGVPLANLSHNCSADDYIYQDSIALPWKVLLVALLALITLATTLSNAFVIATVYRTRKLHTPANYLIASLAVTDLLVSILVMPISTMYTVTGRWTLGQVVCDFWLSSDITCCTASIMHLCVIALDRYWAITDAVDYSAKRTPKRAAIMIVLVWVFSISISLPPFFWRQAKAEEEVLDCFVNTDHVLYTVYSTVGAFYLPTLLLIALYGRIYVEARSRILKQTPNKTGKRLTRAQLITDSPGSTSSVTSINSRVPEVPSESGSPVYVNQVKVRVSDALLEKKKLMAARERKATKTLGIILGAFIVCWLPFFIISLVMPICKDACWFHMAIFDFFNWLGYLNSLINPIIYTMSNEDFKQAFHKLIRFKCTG

C-C chemokine receptor type 5, sequence (P51681 whole entry): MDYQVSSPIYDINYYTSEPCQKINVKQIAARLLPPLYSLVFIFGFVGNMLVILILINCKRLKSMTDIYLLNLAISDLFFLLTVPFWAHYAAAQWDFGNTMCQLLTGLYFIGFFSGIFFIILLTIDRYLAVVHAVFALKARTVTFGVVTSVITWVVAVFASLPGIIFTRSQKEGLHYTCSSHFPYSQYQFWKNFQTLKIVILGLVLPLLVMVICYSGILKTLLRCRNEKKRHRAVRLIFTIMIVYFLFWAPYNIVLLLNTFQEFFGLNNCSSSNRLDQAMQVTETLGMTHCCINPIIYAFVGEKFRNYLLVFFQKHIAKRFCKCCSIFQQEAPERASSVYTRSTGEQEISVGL

Compound	IC50 [1]	IC50 ([2]; read-out: IC50) [nM]	Ki ([2]; read-out: Ki) [nM]	IC50 [3]	IC50 [4]	IC50 ([5]; read-out: IC50) [nM]	Ki ([5]; read-out: Ki) [nM]	IC50 [6]	IC50 [7]	IC50 [2]	Ki [2]	IC50 [5]	Ki [1]	Ki [3]	Ki [4]	Ki [5]	Ki [6]	Ki [7]
CCCNCC(O)COc1ccccc1C(=O)CCc1ccccc1 (stereo unspecified) [PROPAFENONE]	Not Active	775	689	Not Active	Not Active	6150	2490	Not Active	Not Active	–	–	–	–	–	–	–	–	–
CCCOc1ccc(C(=O)OCCN(CC)CC)cc1N [PROPARACAINE]	Not Active	–	–	Not Active	Not Active	–	–	Not Active	Not Active	Not Active	Not Active	Not Active	–	–	–	–	–	–
CC(C)c1cccc(C(C)C)c1O [PROPOFOL]	Not Active	–	–	Not Active	Not Active	–	–	Not Active	Not Active	Not Active	Not Active	Not Active	–	–	–	–	–	–
C[C@@H]1O[C@@H](O[C@@H]2C=C3CC[C@@H]4[C@H](CC[C@]5(C)[C@@H](c6ccc(=O)oc6)CC[C@]45O)[C@@]3(C)CC2)[C@H](O)[C@H](O)[C@H]1O [PROSCILLARIDIN]	Not Active	–	–	Not Active	Not Active	–	–	Not Active	Not Active	Not Active	Not Active	Not Active	–	–	–	–	–	–
Oc1cccc(O)c1O [PYROGALLOL]	Not Active	–	–	Not Active	Not Active	–	–	Not Active	Not Active	Not Active	Not Active	Not Active	–	–	–	–	–	–
AURANOFIN	Not Active	–	–	Not Active	Not Active	–	–	Not Active	Not Active	Not Active	Not Active	Not Active	Not Active	Not Active	Not Active	Not Active	Not Active	Not Active
GADOPENTETATE DIMEGLUMINE	Not Active	–	–	Not Active	Not Active	–	–	Not Active	Not Active	Not Active	Not Active	Not Active	Not Active	Not Active	Not Active	Not Active	Not Active	Not Active
GENTAMICIN	Not Active	–	–	Not Active	Not Active	–	–	Not Active	Not Active	Not Active	Not Active	Not Active	Not Active	Not Active	Not Active	Not Active	Not Active	Not Active
GRAMICIDIN	Not Active	–	–	Not Active	Not Active	–	–	Not Active	Not Active	Not Active	Not Active	Not Active	Not Active	Not Active	Not Active	Not Active	Not Active	Not Active
NYSTATIN	Not Active	–	–	Not Active	Not Active	–	–	Not Active	Not Active	Not Active	Not Active	Not Active	Not Active	Not Active	Not Active	Not Active	Not Active	Not Active
